Experimental data reported in US20050256179A1, “Selective pharmacologic inhibition of protein trafficking and related methods of treating human diseases” (priority 2003, published 2005).
In brackets after ≈: the same amount, converted by molar mass.

Assays:
GS28 = GS28 expression by Western blotting; format: cell-based; settings: MOLT4, Hs578T, H-460, overnight
Description: The culture medium was removed by vacuuming (for attached cells) or by low speed centrifugation (for suspension cells) for 5-7 minutes at room temperature. The cells were wasedh twith PBS, spun at 1200 rpm and the cell pellets were kept on ice. 300 μl/2.0×10^7 cells of ice cold lysis buffer was added with freshly added protease inhibitors. Cell pellets were gently resuspended and incubated on ice for at least 30 min, vortexed a few times during incubation. Cell lysate was spun at 14,000 rpm for 2-5 min at 4° C. The supernatant was transferred to a new microfuge tube and the pellet was discarded. An aliquot of sample was mixed with an equal volume of 2× sample buffer (InVitrogen), and stored at −80° C. Protein concentration was determined by using “BCA protein assay reagent kit” from Pierce.
Protein samples (in sample buffer) were boiled for 1-3 minutes and put on ice. Same amount of protein were loaded on the NuPage gel (InVitrogen). After the electrophoresis was complete, proteins were transferred from the gel to a PVDF membrane using the electro-blotting apparatus from InVitrogen; the voltage was set to 25 for 2-3 hr. Block non-specific binding by incubating membrane with 5% milk (in PBS, 0.1% tween 20) for at least 30 min at room temperature or overnight at 4° C. The blocked membrane was incubated with primary antibody (See TABLE 2) diluted in 5% milk for 1 hour at room temperature. Optimal antibody dilution depends on the company, the amount of protein. Dilutions of 1:1000 were generally used for the primary antibodies from Santa Cruz. The membrane was washed with PBS, 0.1% tween 3-4 times 5 mins. The membrane was incubated for 30-60 minutes at room temperature with horseradish peroxidase (HRP) conjugated secondary antibody diluted in 5% milk. We usually used 1:4000 dilution for the secondary antibody from Santa Cruz. The membrane was washed 3-4 times with PBS, 0.1% tween, each time 15 minutes. The detection solutions A and B were mixed in a ratio 40:1 and Pipetted onto the membrane, and incubated for 5 min at RT. A sheet of Hyper film ECL was placed on the top of the membrane in the dark and exposed for 1 min, or adjust accordingly.
To further examine the putative protein trafficking effects of AVP 893, other proteins in this pathway were tested in vitro in B16 and other cell lines. The effect of AVP 893 on cellular proteins was corroborated in B16 cells and extended to include a time-course (FIG. 17). B16-F10 tumor cells were seeded in T75 flasks at 20% confluence and cultured overnight. AVP 893 (100 ng/ml) was added to several flasks and one flask of cells was harvested at several time points following addition of compound. Lysates were prepared, separated by electrophoresis, and probed with antibody as described above in the general Western blotting protocol. Drug effects on GS28 and nicastrin paralleled each other and were progressively stronger with longer drug incubations. […] Other cell lines were tested for their expression of GS28 and nicastrin and found to respond similarly to drug, although quantitative differences were evident. Tumor cell lines found to respond similarly to AVP 893 include CAK1, SF295, PC3, MOLT4, Neuro2a, and RBL (FIGS. 18, 19, and 20). For the experiment shown in FIG. 18, LOX, CAKI, and 3T3 cell lines were treated as described for FIG. 17. For the results shown in FIG. 19, SF295, PC3, MOLT-4, and Neuro2a cells were treated as described for FIG. 17. For the results shown in FIG. 20, LOX, 3T3, and RBL cell lines were treated with varying concentrations of AVP 893 as described for FIG. 17. The effects on LOX cells were less evident. […] Levels of calnexin, a resident ER protein used as a control, were unchanged in drug-treated cells.

[1] = tested on: tumor cell lines (NCI 60-cell screening panel); settings: NCI 60-cell screen, data from the NCI database; cited from earlier work
Mannosidase II = Mannosidase II immunocytochemistry; format: cell-based; settings: 1 hr of treatment, immunocytochemistry
Description: GS15, GS28, GPP130, and Mannosidase II, sparing the golgi structural protein GM-130 and having little effect on the Rab GTPase Rab6. Furthermore, these affects were most pronounced following overnight (16-20 hr) incubations with AVP 893, although some affects at early time points were seen. These conclusions were drawn from the western blot analysis (FIG. 29), as well as from the immunocytochemical studies (FIGS. 30-31).
Additional evidence that AVP 893 has unique activity against resident golgi proteins (e.g. Mannosidase II), was found using both shorter durations of drug exposure and immunocytochemistry instead of western blot analysis (FIG. 43).

HCC 1806 = test: Inhibition of tumor cell proliferation in vitro (SRB total protein); format: cell-based; settings: in-house head-to-head, about 72 hours
Description: (§1) For a typical screening experiment, cells are inoculated into 96 well microtiter plates in 100 μl at plating densities ranging from 5,000 to 40,000 cells/well depending on the doubling time of individual cell lines. After cell inoculation, the microtiter plates are incubated at 37° C., 5% or 10% CO2—depending on the cell line and media—95% air and 100% relative humidity for 24 h prior to addition of experimental drugs. After 24 h, two plates of each cell line are fixed in situ with TCA, to represent a measurement of the cell population for each cell line at the time of drug addition. Following drug addition, the plates are incubated for an additional 48 h at 37° C., 5%/10% CO2, 95% air, and 100% relative humidity. For adherent cells, the assay is terminated by the addition of cold TCA. Cells are fixed in situ by the gentle addition of 50 μl of cold 50% (w/v) TCA (final concentration, 10% TCA) and incubated for 60 minutes at 4° C. The supernatant is discarded, and the plates are washed five times with tap water and air-dried. Sulforhodamine B (SRB) solution (10011) at 0.4% (w/v) in 1% acetic acid is added to each well, and plates are incubated for 10 minutes at room temperature. After staining, unbound dye is removed by washing five times with 1% acetic acid and the plates are air-dried. Bound stain is subsequently solubilized with 10 mM trizma base, and the absorbance is read on an automated plate reader at a wavelength of 515 nm. For suspension cells, the methodology is the same except that the assay is terminated by fixing settled cells at the bottom of the wells by gently adding 50 μl of 80% TCA (final concentration, 16% TCA). Using the seven absorbance measurements [time zero, control growth, and test growth in the presence of drug at the five concentration levels], the percentage growth is calculated at each of the drug concentrations levels.
(§2) Brefeldin A was tested by the NCI for inhibition of tumor cell proliferation in the 60-cell screen. The NCI 60-cell screen was performed essentially as described for FIG. 9. Data available from the NCI database for Brefeldin A was compared with more recent AVP 893 data. […] Several tumor cell lines were cultured in the presence of either AVP 893 or Brefeldin A for about 72 hours before assessing proliferation response by measuring total protein (SRB), as described for FIG. 9. The results of the head-to-head comparisons performed in-house also show substantial variation in the relative proliferative responses of cells to Brefeldin A and AVP 893 in vitro (TABLE 3).

Hs578T = test: as above; format: cell-based; settings: in-house head-to-head, about 72 hours, SRB
Description: as §1, §2

NCI H-460 = test: as above; format: cell-based; settings: in-house head-to-head, about 72 hours, SRB
Description: as §1, §2

MOLT-4 = test: as above; format: cell-based; settings: in-house head-to-head, about 72 hours, SRB
Description: as §1, §2

[2] = tested on: rat basophilic leukemia (RBL) cells; test: Degranulation of RBL cells; format: cell-based; settings: induced with PMA/ionomycin or IgE-antigen complexes, not shown
Source text: The proposed mechanism of the AVP compounds on intracellular protein transit also allows certain predictions as to other effects and non-effects that these compounds might share. For example, inhibition of vesicle fusion or budding between the ER and golgi should not affect exocytosis as would be expected of a post-golgi active compound such as Monensin. AVP 893 has minimal effects on the expression of proteins involved in exocytosis, particularly VAMP, SNAP23 (non-neuronal cells), and SNAP25 (neuronal cells).

[3] = tested on: T cells from mouse spleen and human PBL; test: T cell cytokine responses in vitro (Luminex beads); format: cell-based
Source text: These series of compounds were initially identified on the basis of their IgE-blocking activity in an ex vivo IgE response protocol (FIG. 2), and the biological activity of all analogs are characterized on the basis of their activity in this assay. Activity in the ex vivo assay is corroborated in the in vitro assay of B cell response to 1L-4/anti-CD40 Ab-stimulated IgE in human PBL (FIG. 3) using standard procedures, and mouse splenic B cells (not shown). Drug action on T cells was shown by testing T cell cytokine responses to various stimuli in vitro. The response of a cadre of cytokines and chemokines to several alternative stimuli was tested in T cells from both mouse spleen and human PBL. T cells were isolated from murine spleen and cultured for 16 hours in the presence of stimulus+/−AVP 13358. Supernatants were quantified for cytokines using Luminex beads. All cytokines achieved levels of at least 200 pg/ml and 10-fold higher than background (FIG. 4). T cells were isolated from donor PBL and cultured for 16-36 hours in the presence of Phytohemaglutin (PHA, 5 μg/ml) and ConA (5 μg/ml)+/−AVP 13358. Supernatants were quantified for cytokines using Luminex beads (FIG. 5). […] Total protein was assessed by the SRB assay, as adopted for many of the proliferation experiments outline below.

60 kinase assays = test: Kinase and biochemical assay screens (Upstate panel); settings: concentrations of less than 1 μg/ml; 1 μM in 60 kinase assays
Source text: In an effort to understand how these compounds might be acting at the cellular and molecular level, several screens of drug activity were initiated. The first 2 screens were designed to test the activity of drug on certain binding events and the activity of a variety of enzymes in vitro (FIGS. 14 and 15).

[4] = tested on: CD23 and the IL-4 receptor on murine B cells and human monocytes; test: Induction of CD23 and IL-4 receptor expression; format: cell-based, mouse; settings: murine B cells and human monocytes in vitro

Structure (SMILES): C[C@H]1CCC/C=C/[C@@H]2C[C@H](O)C[C@H]2[C@H](O)/C=C/C(=O)O1 [Brefeldin A, reference compound]
- GS28 expression (GS28): variable effects
- concentrations inhibiting proliferation of virtually all cells [1]: 10 to 100 nM
- Mannosidase II staining pattern (Mannosidase II): completely dispersed
- IC50 (HCC 1806): 0.03 µg/mL (≈ 0.107 µM)
- IC50 (Hs578T): 0.1 µg/mL (≈ 0.357 µM)
- IC50 (NCI H-460): 0.005 µg/mL (≈ 0.0178 µM)
- IC50 (MOLT-4): 0.003 µg/mL (≈ 0.0107 µM)

Structure (SMILES): O=C(Nc1ccccn1)c1ccc2[nH]c(-c3ccc(NC(=O)C45C[C@H]6C[C@@H](C4)C[C@@H](C5)C6)cc3)nc2c1 [AVP 13358]
- degranulation [2]: does not inhibit degranulation
- IL-1 levels ([3]; in vitro): does not affect IL-1 levels
- levels of cytokines including IL-4, IL-5, IL-13 ([3]; stimulated T cells, 16-36 hours): potently suppressed the levels of most cytokines
- activity in kinase and biochemical assays (60 kinase assays): no drug activity was observed
- induction of CD23 and IL-4 receptor [4]: potently blocked the induction of these receptors
